We go through 1 molecule from patent US20260115162A1, “COMPOSITION OR ASSOCIATION OF COMPOUNDS PREFERABLY FOR USE IN THE TREATMENT OF NERVOUS DISEASES IN PARTICULAR NEURODEGENERATIVE DISEASES, METHOD FOR THE PREPARATION OF SUCH COMPOSITION OR ASSOCIATION OF COMPOUNDS AND USES THEREOF” (PHARMACEUTICA SAN MARCO S.R.L., priority 2022, published 2026).

The data set in a line: Pharmacokinetics of βBA and AKBA via os in healthy volunteers, fasted and hyperlipidic meal (Sterk V et al. 2004). In kind it is in vivo, humans. From the text:
Indeed, βBA has a concentration in the blood: • at least 6 times higher than AKBA both in the fasting condition and with a hyperlipidic meal; • increased by 6 times after hyperlipidic meal so that the plasma/os ratio passes from 0.09 to 0.55.

In the case of `C[C@H]1[C@H](C)CC[C@]2(C)CC[C@]3(C)C(=CC[C@@H]4[C@@]5(C)CC[C@@H](O)[C@](C)(C(=O)O)[C@@H]5CC[C@]43C)[C@H]12` [βBA, β-boswellic acid], the plasma/os ratio is given as 0.55 (after hyperlipidic meal) and 0.09 (fasting condition). Also, under “both fasting and hyperlipidic meal”, the “blood concentration of βBA relative to AKBA” value is “at least 6 times”. Moreover, the Δos/plasma by setting is: (healthy volunteers, fasted conditions) 10.9 fasted; (healthy volunteers, hyperlipidic fed conditions) 1.82 hyperlipidic. Moreover, where the note is “healthy volunteers, hyperlipidic meal vs fasted”, the “increase in blood concentration / intestinal absorption induced by a hyperlipidic meal” value was 6 times.
